Measurements from patent US6825187B2, “Carbapenem derivatives of quarternary salt type” (Meiji Seika Kaisha, Ltd., priority 2000, dated 2004).
In brackets after ≈: the same amount, converted by molar mass. Counter-ions that a name gives are not always drawn.

How the values were obtained:
K. pneumoniae PC 1602 = assay: Antimicrobial activities, MIC; type: cell-based; conditions: inoculants 10^6 CFU/ml; for minimum inhibiting concentrations (MIC): Sensitivity Disk agar-N+5% Horse blood
Method: (§1) The minimum inhibiting concentrations (MIC, μg/ml) of representative compounds, among the novel carbapenem derivatives of the present invention, to various pathogenic bacteria were measured in accordance with the method described in CHEMOTHERAPY, vol. 16, No. 1, 99, 1968. The culture medium for the measurement is Sensitivity Disk agar-N+5% Horse blood, and the amount of inoculants used is 10^6 CFU/ml.

[1] = system: S. aureus M 126 (Methicillin-hyperresistant strain); assay: Antimicrobial activities, MIC; type: cell-based; conditions: Sensitivity Disk agar-N+5% Horse blood, inoculants 10^6 CFU/ml
Method: as §1

E. faecalis W-73 = assay: Antimicrobial activities, MIC; type: cell-based; conditions: inoculants 10^6 CFU/ml; for minimum inhibiting concentrations (MIC): Sensitivity Disk agar-N+5% Horse blood
Method: as §1

H. influenzae PRC 44 = assay: Antimicrobial activities, MIC; type: cell-based; conditions: inoculants 10^6 CFU/ml; for minimum inhibiting concentrations (MIC): Sensitivity Disk agar-N+5% Horse blood
Method: as §1

B. catarrhalis W-0500 = assay: Antimicrobial activities, MIC; type: cell-based; conditions: inoculants 10^6 CFU/ml; for minimum inhibiting concentrations (MIC): Sensitivity Disk agar-N+5% Horse blood
Method: as §1

E. coli NIHJ JC-2 = assay: Antimicrobial activities, MIC; type: cell-based; conditions: inoculants 10^6 CFU/ml; for minimum inhibiting concentrations (MIC): Sensitivity Disk agar-N+5% Horse blood
Method: as §1

C. freundii GN 346 = assay: Antimicrobial activities, MIC; type: cell-based; conditions: inoculants 10^6 CFU/ml; for minimum inhibiting concentrations (MIC): Sensitivity Disk agar-N+5% Horse blood
Method: as §1

[2] = system: S. epidermidis ATCC 14990; assay: Antimicrobial activities, MIC; type: cell-based; conditions: inoculants 10^6 CFU/ml; for minimum inhibiting concentrations (MIC): Sensitivity Disk agar-N+5% Horse blood
Method: as §1

S. aureus 209P JC-1 = assay: Antimicrobial activities, MIC; type: cell-based; conditions: Sensitivity Disk agar-N+5% Horse blood, inoculants 10^6 CFU/ml
Method: as §1

E. hirae ATCC 8043 = assay: Antimicrobial activities, MIC; type: cell-based; conditions: inoculants 10^6 CFU/ml; for minimum inhibiting concentrations (MIC): Sensitivity Disk agar-N+5% Horse blood
Method: as §1

P. vulgaris GN 7919 = assay: Antimicrobial activities, MIC; type: cell-based; conditions: inoculants 10^6 CFU/ml; for minimum inhibiting concentrations (MIC): Sensitivity Disk agar-N+5% Horse blood
Method: as §1

H. influenzae PRC 2 = assay: Antimicrobial activities, MIC; type: cell-based; conditions: inoculants 10^6 CFU/ml; for minimum inhibiting concentrations (MIC): Sensitivity Disk agar-N+5% Horse blood
Method: as §1

[3] = system: S. pneumoniae PRC 9 (Penicillin-hyperresistant strain); assay: Antimicrobial activities, MIC; type: cell-based; conditions: Sensitivity Disk agar-N+5% Horse blood, inoculants 10^6 CFU/ml
Method: as §1

mice (ICR, male) = assay: Acute Toxicity Test; type: in vivo; conditions: intraveneously administered, 2000 mg/kg, one group of three mice
Method: The compound of Example 3 according to the present invention was intraveneously administered at a dose of 2000 mg/kg to mice (ICR, male) (one group consisting of three mice).

[4] = Staphylococcus aureus, read-out: minimum inhibiting concentrations (MIC)

| Compound | minimum inhibiting concentrations (MIC) (K. pneumoniae PC 1602) | minimum inhibiting concentrations (MIC) [1] | minimum inhibiting concentrations (MIC) (E. faecalis W-73) | minimum inhibiting concentrations (MIC) (H. influenzae PRC 44) | minimum inhibiting concentrations (MIC) (B. catarrhalis W-0500) | minimum inhibiting concentrations (MIC) (E. coli NIHJ JC-2) | minimum inhibiting concentrations (MIC) (C. freundii GN 346) | minimum inhibiting concentrations (MIC) [2] | minimum inhibiting concentrations (MIC) (S. aureus 209P JC-1) | minimum inhibiting concentrations (MIC) (E. hirae ATCC 8043) | minimum inhibiting concentrations (MIC) (P. vulgaris GN 7919) | minimum inhibiting concentrations (MIC) (H. influenzae PRC 2) | minimum inhibiting concentrations (MIC) [3] | also measured |
| --- | --- | --- | --- | --- | --- | --- | --- | --- | --- | --- | --- | --- | --- | --- |
| C[C@@H](O)[C@H]1C(=O)N2C(C(=O)O)=C(SCCN=CN)C[C@H]12 [Compound A, Imipenem, reference compound] |  |  |  |  |  |  |  |  |  |  |  |  |  | MIC (K. pneumoniae PC 1602; Klebsiella pneumoniae, PC1602, Sensitivity Disk agar-N+5% Horse blood, read-out: minimum inhibiting concentrations (MIC)): 0.2 µg/mL (≈ 0.668 µM); MIC [1, 4]: 25 µg/mL (≈ 83.5 µM); MIC (E. faecalis W-73; Enterococcus faecalis, W73, Sensitivity Disk agar-N+5% Horse blood, read-out: minimum inhibiting concentrations (MIC)): 0.78 µg/mL (≈ 2.61 µM); MIC (H. influenzae PRC 44; Haemophilus influenzae, PRC44, Sensitivity Disk agar-N+5% Horse blood, read-out: minimum inhibiting concentrations (MIC)): 12.5 µg/mL (≈ 41.8 µM); MIC (B. catarrhalis W-0500; Moraxella catarrhalis, W0500, Sensitivity Disk agar-N+5% Horse blood, read-out: minimum inhibiting concentrations (MIC)): 0.05 µg/mL (≈ 0.167 µM); MIC (E. coli NIHJ JC-2; Escherichia coli, NIHJJC2, Sensitivity Disk agar-N+5% Horse blood, read-out: minimum inhibiting concentrations (MIC)): 0.1 µg/mL (≈ 0.334 µM); MIC (C. freundii GN 346; Citrobacter freundii, GN346, Sensitivity Disk agar-N+5% Horse blood, read-out: minimum inhibiting concentrations (MIC)): 0.2 µg/mL (≈ 0.668 µM); MIC ([2]; Staphylococcus epidermidis, ATCC14990, Sensitivity Disk agar-N+5% Horse blood, read-out: minimum inhibiting concentrations (MIC)): < 0.025 µg/mL; MIC (S. aureus 209P JC-1; [4]): < 0.025 µg/mL; MIC (E. hirae ATCC 8043; Enterococcus hirae, ATCC8043, Sensitivity Disk agar-N+5% Horse blood, read-out: minimum inhibiting concentrations (MIC)): 0.78 µg/mL (≈ 2.61 µM); MIC (P. vulgaris GN 7919; Proteus vulgaris, GN7919, Sensitivity Disk agar-N+5% Horse blood, read-out: minimum inhibiting concentrations (MIC)): 0.1 µg/mL (≈ 0.334 µM); MIC (H. influenzae PRC 2; Haemophilus influenzae, PRC2, Sensitivity Disk agar-N+5% Horse blood, read-out: minimum inhibiting concentrations (MIC)): 0.79 µg/mL (≈ 2.64 µM); MIC ([3]; Streptococcus pneumoniae, read-out: minimum inhibiting concentrations (MIC)): 0.2 µg/mL (≈ 0.668 µM) |
| C[C@@H](O)[C@H]1C(=O)N2C(C(=O)[O-])=C(c3cn4c[n+](C)cc4s3)[C@H](C)[C@H]12 [Compound B, (1S,5R,6S)-6-((1R)-1-Hydroxyethyl)-1-methyl-2-(6-methylimidazo[5,1-b]thiazolium-2-yl)-1-carbapen-2-em-3-carboxylate (intramolecular salt), reference compound] | 0.10 µg/mL | 3.13 µg/mL | 0.20 µg/mL | 0.39 µg/mL | <0.025 µg/mL | <0.025 µg/mL | 0.10 µg/mL | <0.025 µg/mL | <0.025 µg/mL | 0.78 µg/mL | 0.20 µg/mL | 0.10 µg/mL | 0.05 µg/mL |  |
| CSc1c2sc(C3=C(C(=O)[O-])N4C(=O)[C@H]([C@@H](C)O)[C@H]4[C@H]3C)cn2c[n+]1CC(N)=O [Example 3, (1S,5R,6S)-2-(6-carbamoylmethyl-7-methylthioimidazo[5,1-b]thiazolium-2-yl)-6-((1R)-1-hydroxyethyl)-1-methyl-1-carbapen-2-em-3-carboxylate (intramolecular salt)] | 0.10 µg/mL | 1.56 µg/mL | 0.20 µg/mL | 0.20 µg/mL | 0.025 µg/mL | 0.025 µg/mL | 0.20 µg/mL | <0.025 µg/mL | <0.025 µg/mL | 0.39 µg/mL | 0.20 µg/mL | 0.05 µg/mL | 0.025 µg/mL | survival in acute toxicity test (mice (ICR, male)): all the mice survived |

More lines, main results first:

| minimum inhibiting concentrations (MIC) (K. pneumoniae PC 1602) | minimum inhibiting concentrations (MIC) [1] | minimum inhibiting concentrations (MIC) (E. faecalis W-73) | minimum inhibiting concentrations (MIC) (H. influenzae PRC 44) | minimum inhibiting concentrations (MIC) (B. catarrhalis W-0500) | minimum inhibiting concentrations (MIC) (E. coli NIHJ JC-2) | minimum inhibiting concentrations (MIC) (C. freundii GN 346) | minimum inhibiting concentrations (MIC) [2] | minimum inhibiting concentrations (MIC) (S. aureus 209P JC-1) | minimum inhibiting concentrations (MIC) (E. hirae ATCC 8043) | minimum inhibiting concentrations (MIC) (P. vulgaris GN 7919) | minimum inhibiting concentrations (MIC) (H. influenzae PRC 2) | minimum inhibiting concentrations (MIC) [3] | Compound | also measured |
| --- | --- | --- | --- | --- | --- | --- | --- | --- | --- | --- | --- | --- | --- | --- |
| 0.10 µg/mL | 1.56 µg/mL | 0.20 µg/mL | 0.20 µg/mL | 0.025 µg/mL | 0.025 µg/mL | 0.10 µg/mL | <0.025 µg/mL | <0.025 µg/mL | 0.78 µg/mL | 0.20 µg/mL | 0.05 µg/mL | 0.025 µg/mL | CSc1c2sc(C3=C(C(=O)[O-])N4C(=O)[C@H]([C@@H](C)O)[C@H]4[C@H]3C)cn2c[n+]1C [Example 2, (1S,5R,6S)-6-((1R)-1-hydroxyethyl)-1-methyl-2-(6-methyl-7-methylthioimidazo[5,1-b]thiazolium-2-yl)-1-carbapen-2-em-3-carboxylate (intramolecular salt)] |  |
| 0.10 µg/mL | 0.39 µg/mL | 0.20 µg/mL | 0.78 µg/mL | 0.025 µg/mL | 0.05 µg/mL | 0.10 µg/mL | <0.025 µg/mL | <0.025 µg/mL | 0.39 µg/mL | 0.39 µg/mL | 0.05 µg/mL | 0.025 µg/mL | CSc1c2sc(C3=C(C(=O)[O-])N4C(=O)[C@H]([C@@H](C)O)[C@H]4[C@H]3C)cn2c[n+]1CCCN.Cl [Example 14, (1S,5R,6S)-2-[6-(3-aminopropyl)-7-methylthioimidazo[5,1-b]thiazolium-2-yl]-6-((1R)-1-hydroxyethyl)-1-methyl-1-carbapen-2-em-3-carboxylate (intramolecular salt) hydrochloride] |  |
| 0.10 µg/mL | 0.78 µg/mL | 0.20 µg/mL | 0.78 µg/mL | 0.05 µg/mL | 0.05 µg/mL | 0.20 µg/mL | <0.025 µg/mL | <0.025 µg/mL | 0.39 µg/mL | 0.39 µg/mL | 0.10 µg/mL | 0.05 µg/mL | CSc1c2sc(C3=C(C(=O)[O-])N4C(=O)[C@H]([C@@H](C)O)[C@H]4[C@H]3C)cn2c[n+]1C[C@H](O)CN.Cl [Example 99, (1S,5R,6S)-2-[6-((2R)-3-amino-2-hydroxy)propyl-7-methylthioimidazo[5,1-b]thiazolium-2-yl]-6-((1R)-1-hydroxyethyl)-1-methyl-1-carbapen-2-em-3-carboxylate (intramolecular salt) hydrochloride] |  |
